In paper PMC8842605, “Novel Derivatives of diphenyl-1,3,4-oxadiazol as Ligands of Benzodiazepine Receptors; Synthesize, Binding Assay and Pharmacological Evaluation” (Iranian Journal of Pharmaceutical Research : IJPR, 2021):

Legend:
benzodiazepine receptor = assay: Radioligand competition binding with [3H]-flumazenil; settings: rat brain membrane; for IC50: 35 min at 30 °C, read-out: IC50 (95% CI); for Ki: Cheng-Prussof equation
Description: Temporarily, the brain tissue of Male Sprague-Dawley rats (200-250 g weight) were used as the source of the benzodiazepine receptors. These tissues were collected, homogenized in 20 mL of ice‐cold Tris‐HCl buffer and centrifuged at 600 g for 10 min. in the next step, the supernatant was centrifuged 37000xg for 15 min at 4 °C. […] The Bradford method using bovine serum albumin as a standard, was applied for quantification of protein in the separated membrane. Saturation and competition experiments are two basic methods of receptor binding studies. […] NSB was determined in parallel assays performed in the presence of 100 μM diazepam. Competition experiments were used to measure the percentage inhibition of radioligand specific binding (IC50) and affinity (Ki) of the novel synthesized ligands and diazepam, using the Cheng-Prussof equation.

mice [1] = assay: Grip strength test; format: in vivo; settings: Mus musculus, 0.5 h, read-out: ED50 (95% CI), Grip strength test
Description: To assessment the muscle relaxant effects of novel synthesized compounds by measuring the maximum force applied to the digital force meter, the grip strength test was prepared. This assessment was guided using the modified method explained by Bachstetter et al. (2014). The test was repeated 3 times for each mouse, 30 min after injection of the novel compounds ([29]).

mice [2] = assay: Open field test; format: in vivo; settings: Mus musculus, ip, intraperitoneal, 30 min before test, total distance movement, read-out: ED50 (95% CI), Open field test
Description: To the assessment of the sedative effects and locomotor activities of the novel synthesized compounds, the open field test was performed. […] The total distance movement was recorded for 10 min by a digital camera and then was calculated by an automated tracking system (Ethovision XT software, Noldus, The Netherlands) ([24]).

[3] = test system: pentylenetetrazol-induced seizure; assay: Pentylenetetrazol (PTZ) test; format: in vivo; settings: Mus musculus, 0.5 h; mice, 30 min after administration; number of dead animals; read-out: ED50 (95% CI), PTZ test
Source text: (§1) Two useful seizure models (MES and PTZ) were organized for evaluation of the anticonvulsant activities of novel synthesized compounds. In these experiments, the capability of novel synthesized compounds to prevent the maximal electro shock-induced seizure and pentylenetetrazol-induced seizure were screened. MES test (60 Hz, 50 mA, 0.2 s) was done according to the method described by Toolabi et al. (2020). PTZ test was done Using the mothed described by Ranjbar-ekbatan et al. (2019). These experiments were applied 30 min after administration of the novel compounds. The number of HLTE (hind limb tonic extension) in the MES test and the number of dead animals in the PTZ test were counted ([30]–[32]).

[4] = test system: maximal electro shock-induced seizure; assay: Maximal electro shock (MES) test; format: in vivo; settings: Mus musculus, 0.5 h; mice, 30 min after administration; 60 Hz, 50 mA, 0.2 s; HLTE; read-out: ED50 (95% CI), MES test
Source text: as §1

mice [5] = assay: Elevated plus maze test; format: in vivo; settings: Mus musculus, percentage of time spent in open arms, read-out: ED50 (95% CI), Elevated plus maze test
Description: To assay the anti-anxiety effects of novel synthesized compounds, the elevated plus-maze test was used. The apparatus of the elevated plus-maze test is prepared of two open arms (30 × 5 × 0.5 cm) and two close arms (30 × 5 × 35 cm) with an open roof and was set at a height of 50 cm above the floor.

mice [6] = assay: Pentobarbital induced sleep test; settings: Mus musculus, read-out: ED50 (95% CI), Pentobarbital induced Sleeping test
mice [7] = assay: Rotarod test; format: in vivo; settings: 30 min after injection, 6 rpm, 1 min, Diazepam 2 mg/kg
Description: For evaluation of the motor coordination and balance capability, the rotarod test was used. Concisely, 30 min after injection of the novel compounds and Diazepam (2 mg/kg), each animal was located on a rotating rod (6 rpm, 1 min). In this experiment, the average time latency to fall for each animal was noted ([33]).

mice [8] = assay: Passive avoidance test; format: in vivo; settings: Diazepam 2 mg/kg
Source text: To determine the effects of novel synthesized compounds on learning and memory disorder, the passive avoidance test was done. The passive avoidance apparatus consists of two compartments, that one of them is brightly lit (white compartment) and another one is dimly lit (black compartment). A sliding door divides these two compartments. […] After arriving in the black compartment, it was received a mild unpleasant electrical stimulation (0.5 mA for 2 s) through the grid floor. During the test phase, the animal was relocated in the white compartment. However, there was no electric stimulation in the dark compartment. The latency to enter the dark compartment was recounted ([34],[35]).

[9] = mice, 30 min after injection, maximum force

SMILES	IC50 (benzodiazepine receptor) [nM]	ED50 (mice [1]; [9]) [mg/kg]	ED50 (mice [2]) [mg/kg]	ED50 [3] [mg/kg]	ED50 [4] [mg/kg]	melting point [°C]	ED50 (mice [5]) [mg/kg]	ED50 (mice [6]) [mg/kg]	Ki (benzodiazepine receptor) [nM]	latency to fall in rotarod test vs control (mice [7])	ED50 (mice [1]) [mg/kg]	latency to enter the dark compartment in passive avoidance test vs control (mice [8])
O=C(O)c1ccccc1C(=O)Nc1ccccc1-c1nnc(-c2ccccc2)o1 [Compound 7i, 2-((2-(5-phenyl-1,3,4-oxadiazol-2-yl)phenyl)carbamoyl)benzoic acid]	1.54	13.2	7.14	45.1	26.7	196 to 198	8.71	4.64				
O=C(Nc1ccccc1-c1nnc(-c2ccccc2)o1)c1ccc(F)cc1 [Compound 7c, 4-fluoro-N-(2-(5-phenyl-1,3,4-oxadiazol-2-yl)phenyl)benzamide]	6.05	30.9	19.7	118	105	189 to 190	13.7	17.1	3.51			
O=C(Nc1ccccc1-c1nnc(-c2ccccc2)o1)c1ccc([N+](=O)[O-])cc1 [Compound 7e, 4-nitro-N-(2-(5-phenyl-1,3,4-oxadiazol-2-yl)phenyl)benzamide]	9.16	25.7	19.1	45.2	24.2	195 to 197	9.96	19.6	5.32			
Cc1ccc(C(=O)Nc2ccccc2-c2nnc(-c3ccccc3)o2)cc1 [Compound 7d, 4-methyl-N-(2-(5-phenyl-1,3,4-oxadiazol-2-yl)phenyl)benzamide]	4.26	29.4	18.8	109	92.5	200 to 202	12.6	13.1	2.47			
CN1C(=O)CN=C(c2ccccc2)c2cc(Cl)ccc21 [Diazepam, reference compound]	1.71		1.69	1.01	1.32		2.24	1.98	0.99	significant decrease in latency to fall	2.27	significant reduction in latency to enter the dark compartment
CC(=O)Nc1ccccc1-c1nnc(-c2ccccc2)o1 [Compound 7g, N-(2-(5-phenyl-1,3,4-oxadiazol-2-yl)phenyl)acetamide]	2.78	28.8	14	147	186	155 to 157	12.8	9.45	1.61			
O=C(O)CCC(=O)Nc1ccccc1-c1nnc(-c2ccccc2)o1 [Compound 7j, 4-oxo-4-((2-(5-phenyl-1,3,4-oxadiazol-2-yl)phenyl)amino)butanoic acid]	1.66	17.1	8.9	60.9	40.8	159 to 160	9.77	4.98	0.96			
COc1ccc(C(=O)Nc2ccccc2-c2nnc(-c3ccccc3)o2)cc1 [Compound 7f, 4-methoxy-N-(2-(5-phenyl-1,3,4-oxadiazol-2-yl)phenyl)benzamide]	3.03	26.7	14.5	136	136	216 to 217	12.7	9.91	1.76			
O=C(Nc1ccccc1-c1nnc(-c2ccccc2)o1)c1ccccc1 [Compound 7a, N-(2-(5-phenyl-1,3,4-oxadiazol-2-yl)phenyl)benzamide]	10.2	34.9	27.7	276	235	188 to 189	15.3	22.7	5.95			
O=C(Nc1ccccc1-c1nnc(-c2ccccc2)o1)c1ccc(Cl)cc1 [Compound 7b, 4-chloro-N-(2-(5-phenyl-1,3,4-oxadiazol-2-yl)phenyl)benzamide]	7.62	31.5	21.3	180	163	195 to 197	11.8	19.4	4.43			
CCC(=O)Nc1ccccc1-c1nnc(-c2ccccc2)o1 [Compound 7h, N-(2-(5-phenyl-1,3,4-oxadiazol-2-yl)phenyl) propionamide]	2.57	24.6	10.1	136	118	163 to 165	11.8	5.28	1.49			
